According to PubChem BioAssay (NCI):
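Five concentrations, 48 hours, 96-well plates. TGI marks complete inhibition of growth.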

Tests used:
Test in all cases: inhibition of tumour cell growth, NCI panel, 48 h
UACC-257 melanoma = tested on: UACC-257 melanoma
SK-OV-3 ovarian = tested on: SK-OV-3 ovarian
EKVX NSCLC = tested on: EKVX NSCLC
SN12C renal = tested on: SN12C renal
HOP-62 NSCLC = tested on: HOP-62 NSCLC
HOP-18 NSCLC = tested on: HOP-18 NSCLC
ACHN renal = tested on: ACHN renal
TK-10 renal = tested on: TK-10 renal
XF 498 CNS = tested on: XF 498 CNS
OVCAR-4 ovarian = tested on: OVCAR-4 ovarian
DMS 273 small cell lung = tested on: DMS 273 small cell lung
RXF-631 renal = tested on: RXF-631 renal
NCI-H460 lung = tested on: NCI-H460 lung
LOX IMVI melanoma = tested on: LOX IMVI melanoma
M19-MEL melanoma = tested on: M19-MEL melanoma
CAKI-1 renal = tested on: CAKI-1 renal
A498 renal = tested on: A498 renal
SK-MEL-5 melanoma = tested on: SK-MEL-5 melanoma
HOP-92 NSCLC = tested on: HOP-92 NSCLC
HCT-15 colon = tested on: HCT-15 colon
NCI-H23 lung = tested on: NCI-H23 lung
OVCAR-5 ovarian = tested on: OVCAR-5 ovarian
IGROV1 ovarian = tested on: IGROV1 ovarian
SK-MEL-28 melanoma = tested on: SK-MEL-28 melanoma
HT29 colon = tested on: HT29 colon
SNB-78 CNS = tested on: SNB-78 CNS
786-0 renal = tested on: 786-0 renal
U251 CNS = tested on: U251 CNS
RPMI-8226 leukemia = tested on: RPMI-8226 leukemia
OVCAR-3 ovarian = tested on: OVCAR-3 ovarian
DMS 114 small cell lung = tested on: DMS 114 small cell lung
K-562 leukemia = tested on: K-562 leukemia
KM12 colon = tested on: KM12 colon
SW-620 colon = tested on: SW-620 colon
OVCAR-8 ovarian = tested on: OVCAR-8 ovarian
UO-31 renal = tested on: UO-31 renal
MOLT-4 leukemia = tested on: MOLT-4 leukemia
HCT-116 colon = tested on: HCT-116 colon
NCI-H226 lung = tested on: NCI-H226 lung
COLO 205 colon = tested on: COLO 205 colon
MALME-3M melanoma = tested on: MALME-3M melanoma
UACC-62 melanoma = tested on: UACC-62 melanoma
SNB-75 CNS = tested on: SNB-75 CNS
SNB-19 CNS = tested on: SNB-19 CNS
M14 melanoma = tested on: M14 melanoma
SF-295 CNS = tested on: SF-295 CNS
SF-268 CNS = tested on: SF-268 CNS
RXF 393 renal = tested on: RXF 393 renal
HCC-2998 colon = tested on: HCC-2998 colon
KM20L2 colon = tested on: KM20L2 colon
NCI-H522 lung = tested on: NCI-H522 lung
LXFL 529 NSCLC = tested on: LXFL 529 NSCLC
SF-539 CNS = tested on: SF-539 CNS
SK-MEL-2 melanoma = tested on: SK-MEL-2 melanoma
SR leukemia = tested on: SR leukemia
A549 NSCLC = tested on: A549 NSCLC
CCRF-CEM leukemia = tested on: CCRF-CEM leukemia
HL-60(TB) leukemia = tested on: HL-60(TB) leukemia
DLD-1 colon = tested on: DLD-1 colon

Cc1ccc2nc(NC(=O)C(=O)C(C#N)c3nc4ccccc4s3)sc2c1 (stereo not drawn)
TGI (UACC-257 melanoma): 87.6 µM | TGI (SK-OV-3 ovarian): > 100 µM | TGI (EKVX NSCLC): > 100 µM | TGI (SN12C renal): > 100 µM | TGI (HOP-62 NSCLC): 31.9 µM | TGI (HOP-18 NSCLC): > 100 µM | TGI (ACHN renal): > 100 µM | TGI (TK-10 renal): 85.3 µM | TGI (XF 498 CNS): 63.9 µM | TGI (OVCAR-4 ovarian): > 100 µM | TGI (DMS 273 small cell lung): > 100 µM | TGI (RXF-631 renal): > 100 µM | TGI (NCI-H460 lung): > 100 µM | TGI (LOX IMVI melanoma): > 100 µM | TGI (M19-MEL melanoma): > 100 µM | TGI (CAKI-1 renal): 94.3 µM | TGI (A498 renal): 37.8 µM | TGI (SK-MEL-5 melanoma): 45.7 µM | TGI (HOP-92 NSCLC): 75.3 µM | TGI (HCT-15 colon): > 100 µM | TGI (NCI-H23 lung): 83.9 µM | TGI (OVCAR-5 ovarian): > 100 µM | TGI (IGROV1 ovarian): 51.8 µM | TGI (SK-MEL-28 melanoma): > 100 µM | TGI (HT29 colon): > 100 µM | TGI (SNB-78 CNS): > 100 µM | TGI (786-0 renal): > 100 µM | TGI (U251 CNS): > 100 µM | TGI (RPMI-8226 leukemia): 64.8 µM | TGI (OVCAR-3 ovarian): 56.3 µM | TGI (DMS 114 small cell lung): 70.1 µM | TGI (K-562 leukemia): 76.6 µM | TGI (KM12 colon): > 100 µM | TGI (SW-620 colon): > 100 µM | TGI (OVCAR-8 ovarian): > 100 µM | TGI (UO-31 renal): > 100 µM | TGI (MOLT-4 leukemia): 51.4 µM | TGI (HCT-116 colon): > 100 µM | TGI (NCI-H226 lung): 89.3 µM | TGI (COLO 205 colon): 38.4 µM | TGI (MALME-3M melanoma): > 100 µM | TGI (UACC-62 melanoma): > 100 µM | TGI (SNB-75 CNS): > 100 µM | TGI (SNB-19 CNS): 83.6 µM | TGI (M14 melanoma): > 100 µM | TGI (SF-295 CNS): > 100 µM | TGI (SF-268 CNS): > 100 µM | TGI (RXF 393 renal): 90.9 µM | TGI (HCC-2998 colon): > 100 µM | TGI (KM20L2 colon): > 100 µM | TGI (NCI-H522 lung): > 100 µM | TGI (LXFL 529 NSCLC): > 100 µM | TGI (SF-539 CNS): 40.7 µM | TGI (SK-MEL-2 melanoma): > 100 µM

c1ccc2c(c1)cc(C1NCCc3[nH]cnc31)c1ccccc12 (stereo not drawn)
TGI (UACC-257 melanoma): > 68.3 µM | TGI (SK-OV-3 ovarian): > 100 µM | TGI (EKVX NSCLC): > 100 µM | TGI (SN12C renal): > 100 µM | TGI (HOP-62 NSCLC): > 88.6 µM | TGI (SR leukemia): 61.1 µM | TGI (HOP-18 NSCLC): > 100 µM | TGI (ACHN renal): > 61.9 µM | TGI (TK-10 renal): > 100 µM | TGI (XF 498 CNS): 79 µM | TGI (OVCAR-4 ovarian): > 86.8 µM | TGI (DMS 273 small cell lung): 87.9 µM | TGI (A549 NSCLC): > 100 µM | TGI (RXF-631 renal): > 100 µM | TGI (NCI-H460 lung): > 53.6 µM | TGI (LOX IMVI melanoma): 40.7 µM | TGI (M19-MEL melanoma): > 59.5 µM | TGI (CAKI-1 renal): > 100 µM | TGI (A498 renal): 50 µM | TGI (SK-MEL-5 melanoma): > 69.8 µM | TGI (HOP-92 NSCLC): > 95.6 µM | TGI (HCT-15 colon): > 100 µM | TGI (CCRF-CEM leukemia): > 67.9 µM | TGI (NCI-H23 lung): > 100 µM | TGI (OVCAR-5 ovarian): > 100 µM | TGI (IGROV1 ovarian): > 100 µM | TGI (SK-MEL-28 melanoma): > 65.5 µM | TGI (HT29 colon): > 100 µM | TGI (SNB-78 CNS): > 100 µM | TGI (786-0 renal): > 60.8 µM | TGI (HL-60(TB) leukemia): > 100 µM | TGI (U251 CNS): > 57.7 µM | TGI (RPMI-8226 leukemia): > 78.4 µM | TGI (DLD-1 colon): > 100 µM | TGI (OVCAR-3 ovarian): > 100 µM | TGI (DMS 114 small cell lung): > 64.3 µM | TGI (K-562 leukemia): 41.1 µM | TGI (KM12 colon): > 100 µM | TGI (SW-620 colon): > 60.5 µM | TGI (OVCAR-8 ovarian): > 100 µM | TGI (UO-31 renal): > 100 µM | TGI (MOLT-4 leukemia): 61.7 µM | TGI (HCT-116 colon): 42.7 µM | TGI (NCI-H226 lung): > 68.1 µM | TGI (COLO 205 colon): 26.4 µM | TGI (MALME-3M melanoma): > 100 µM | TGI (UACC-62 melanoma): > 51.1 µM | TGI (SNB-75 CNS): > 100 µM | TGI (SNB-19 CNS): > 100 µM | TGI (M14 melanoma): 36.7 µM | TGI (SF-295 CNS): > 100 µM | TGI (SF-268 CNS): > 100 µM | TGI (RXF 393 renal): 85.6 µM | TGI (HCC-2998 colon): 21.8 µM | TGI (KM20L2 colon): > 100 µM | TGI (NCI-H522 lung): > 68.5 µM | TGI (LXFL 529 NSCLC): > 63.5 µM | TGI (SF-539 CNS): > 59.9 µM | TGI (SK-MEL-2 melanoma): 36.5 µM
